Each structure is given as a SMILES string.

AT2 receptor, sequence (P50052 whole entry, species assumed): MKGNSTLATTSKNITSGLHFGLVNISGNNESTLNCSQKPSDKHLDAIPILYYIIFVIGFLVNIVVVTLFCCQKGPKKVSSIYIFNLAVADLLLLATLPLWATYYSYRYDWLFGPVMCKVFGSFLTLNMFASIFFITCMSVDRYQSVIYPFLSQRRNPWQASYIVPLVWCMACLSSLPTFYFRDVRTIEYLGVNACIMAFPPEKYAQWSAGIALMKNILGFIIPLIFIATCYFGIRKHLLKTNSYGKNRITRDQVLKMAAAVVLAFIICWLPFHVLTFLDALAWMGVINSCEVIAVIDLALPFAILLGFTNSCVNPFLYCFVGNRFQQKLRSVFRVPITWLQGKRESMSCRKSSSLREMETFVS

For the experiment, the target named is AT2 receptor (Homo sapiens (Human), UniProt P50052). The experiment in a line: AT2 Receptor Binding. The settings on record: HEK293 AT2 receptor transient cell membranes, [125I]-CGP42112A. How it is done:
1. Trypsin-EDTA (for Preparation of 100 mL)
• Dissolve trypsin in 2% EDTA and PBS completely; sterilize the solution by passing through a […] membrane filter; store at 4° C.
2. DMEM Medium (for Preparation of 1 L) • The powder was dissolved into 950 mL of distilled water with gentle stirring until the solution becomes clear. • Add. NaHCO3 1.176 g for DMEM medium. • Adjust pH of medium to 0.2˜0.3 below final working pH using 1 M NaOH or 1 M • HCl. Add slowly with stirring. • Dilute to 1 liter with ddH2O. • Sterilize the medium immediately by filtration. • Store at 4° C.
3. TE Buffer • 20 mM Tris-HCl, pH 7.4, • 5 mM EDTA
4. Binding Assay Buffer • 50 mM Hepes, pH 7.4 • 5 mM MgCl2 • 1 mM CaCl2 • 0.2% BSA
5. Wash Buffer • 50 mM Hepes, pH 7.4 Procedures for HEK293AT2 Receptor Transient Cell Transfection • Cells were plated into 150 mm dish at 50% density for transient transfection. Cells were ready for transfection after overnight incubation (the confluence reaches around 80%). • 75 μL Lipofectamine™2000 diluted in 6.25 mL OptiMEM I Reduced Serum Medium, was mixed gently, and incubated at room temperature for 5 minutes. 50 μg expression plasmid DNA diluted in 6.25 mL OptiMEM I Reduced Serum Medium without serum was mixed gently. • After the 5 minute incubation, the diluted DNA was combined with the diluted Lipofectamine™2000 (total volume is 12.5 mL). The mixture was mixed gently and incubated for 30 minutes at room temperature to allow the DNA-Lipofectamine™2000 complexes to form. • The 12.5 mL DNA-Lipofectamine™2000 complexes were added into the 150 mm dish and mixed gently by rocking the dish back and forth. • The cells were incubated at 37° C. with 5% CO2 for 48 hours. Cells were collected and stored frozen at −80° C. Procedures for HEK293AT2 Receptor Cell Membrane Preparation • Frozen HEK293AT2 receptor (transient transfected) cells were homogenized in ice cold TE buffer for 10s. • The homogenate was centrifuged at 25,000 g for 30 minutes. • The pellet was resuspended in ice cold tissue buffer. • Protein concentrations were determined using Bradford assay method with BSA as standard. • The membrane protein was frozen under −80° C. Compound Preparation
Solutions of all compounds were prepared bymicroplate liquid handling equipment such as Janus or Precision 2000. Compounds, dissolved in DMSO were stored in a Freezer. Compounds were prepared from 30 mM in 100% DMSO.
Step 1: Dose Plate Preparation (96 Well Plate)
• Add the 3 μL [30 mM] compound stock to column 1 on the plate. • Add 15 μL of 100% DMSO to column 1. • Add 10.81 μL of 100% DMSO to column 2-12. • Transfer 5 μL from column 1 into column 2 (half log dilution). • Transfer 5 μL from column 2 into column 3 (half log dilution). • Transfer 5 μL from column 3 into column 4 (half log dilution). • Transfer 5 μL from column 4 into column 5 (half log dilution). • Transfer 5 μL from column 5 into column 6 (half log dilution). • Transfer 5 μL from column 6 into column 7 (half log dilution). • Transfer 5 μL from column 7 into column 8 (half log dilution). • Transfer 5 μL from column 8 into column 9 (half log dilution). • Transfer 5 μL from column 9 into column 10 (half log dilution) • Transfer 5 μL from column 10 into column 11 (half log dilution) • Transfer 5 μL from column 11 into column 12 (half log dilution).
All the compounds were diluted using Precision 2000 microplate liquid handling equipment. The top concentration of compound was 5 mM with 100% DMSO.
Step 2: Working Plate Preparation (96 Well Plate)
• Compounds were diluted 50-fold with buffer. • 49 μL buffer was added to the well of 96 well plate. • 1 μL compound solution from dose plate was transferred to the corresponding well of working plate. • The top concentration of compound was 100 μM with 2% DMSO. Step 3: Assay Plate Preparation (96 Well Plate)
15 μL of compound solution was transferred from each well of working plate to the well of assay plate by Janus.
As a reminder, the IC50 is the point on the concentration scale where inhibition reaches its midpoint. `O=C(O)[C@@H]1C[C@H](n2nncc2-c2ccccc2)CN1C(=O)C(c1ccccc1)c1ccccc1` [Compound 100, (2S,4S)-1-(2,2-diphenylacetyl)-4-(5-phenyl-1H-1,2,3-triazol-1-yl)pyrrolidine-2-carboxylic acid] gave an IC50 of 18 nM. The compound `O=C(O)[C@@H]1C[C@H](n2nncc2Cc2ccccc2)CN1C(=O)C(c1ccccc1)c1ccccc1` [Compound 101, (2S,4S)-4-(5-benzyl-1H-1,2,3-triazol-1-yl)-1-(2,2-diphenylacetyl)pyrrolidine-2-carboxylic acid] registered an IC50 of 400 nM. The result for `O=C(O)[C@@H]1C[C@H](N2C(=O)COC[C@@H]2Cc2ccccc2)CN1C(=O)C(c1ccccc1)c1ccccc1` [Compound 102, (2S,4S)-4-((S)-3-benzyl-5-oxomorpholino)-1-(2,2-diphenylacetyl)pyrrolidine-2-carboxylic acid] reads 499 nM; that for `O=C(O)[C@@H]1C[C@H](OCCCc2ccc(F)cc2)CN1C(=O)C(c1ccccc1)c1ccccc1` [Compound 104, (2S,4S)-1-(2,2-diphenylacetyl)-4-(3-(4-fluorophenyl)-propoxy)pyrrolidine-2-carboxylic acid], 1320 nM; that for `COc1ccc(C#CCN(C)[C@H]2C[C@@H](C(=O)O)N(C(=O)C(c3ccccc3)c3ccccc3)C2)cc1C` [Compound 105, (2S,4S)-1-(2,2-diphenylacetyl)-4-((3-(4-methoxy-3-methylphenyl)prop-2-yn-1-yl)(methyl)amino)pyrrolidine-2-carboxylic acid], 2490 nM. In turn, `O=C(O)[C@@H]1C[C@H](CCCCc2ccccc2)CN1C(=O)C(c1ccccc1)c1ccccc1` [Compound 106, (2S,4S)-1-(2,2-diphenylacetyl)-4-(4-phenylbutyl)-pyrrolidine-2-carboxylic acid] gave an IC50 of 426 nM. `O=C(O)[C@@H]1C[C@H](c2sccc2-c2ccccc2)CN1C(=O)C(c1ccccc1)c1ccccc1` [Compound 107, (2S,4S)-1-(2,2-diphenylacetyl)-4-(3-phenylthiophen-2-yl)-pyrrolidine-2-carboxylic acid]: the IC50 was 461 nM. Turning to `CN(C)S(=O)(=O)NC(=O)[C@@H]1C[C@H](OCCCc2ccccc2)CN1C(=O)C(c1ccccc1)c1ccccc1` [Compound 112, (2S,4S)—N—(N,N-dimethylsulfamoyl)-1-(2,2-diphenylacetyl)-4-(3-phenylpropoxy)pyrrolidine-2-carboxamide], the IC50 came out at 255 nM. As to `CN(CCCc1ccc(F)cc1)[C@H]1C[C@@H](C(=O)NS(=O)(=O)N(C)C)N(C(=O)C(c2ccccc2)c2ccccc2)C1` [Compound 114, (2S,4S)—N—(N,N-dimethylsulfamoyl)-1-(2,2-diphenylacetyl)-4-((3-(4-fluorophenyl)propyl)(methyl)amino)pyrrolidine-2-carboxylic acid], the IC50 came to 17.1 nM. The result for `O=C(O)[C@@H]1C[C@H](N2CCC3(CCOC(=O)N3Cc3ccccc3)C2)CN1C(=O)C(c1ccccc1)c1ccccc1` (stereo partly shown) [Compound 115] reads 321 nM; that for `CN(CC#Cc1ccccc1)[C@H]1C[C@@H](C(=O)O)N(C(=O)C(c2ccccc2)c2ccccc2)C1` [Compound 116, (2S,4S)1-(2,2-diphenylacetyl)-4-(methyl(3-phenylprop-2-yn-1-yl)amino)pyrrolidine-2-carboxylic acid], 650 nM; that for `O=C(O)[C@@H]1C[C@H](CS(=O)(=O)Cc2ccccc2)CN1C(=O)C(c1ccccc1)c1ccccc1` [Compound 118, (2S,4S)-4-((benzylsulfonyl)methyl)-1-(diphenylacetyl)-pyrrolidine-2-carboxylic acid], 314 nM. The compound `O=C(O)[C@@H]1C[C@H](CS(=O)(=O)c2ccccc2)CN1C(=O)C(c1ccccc1)c1ccccc1` [Compound 119, (2S,4S)-4-((phenylsulfonyl)methyl)-1-(diphenylacetyl)-pyrrolidine-2-carboxylic acid] displayed an IC50 of 2650 nM.

These data come from patent US9624243B2, “Heterocyclic compounds and methods of their use” (Novartis AG, priority 2012, dated 2017).
